Laboratory results as given in ChEMBL document CHEMBL1201862, “PubChem BioAssay data set” (2004).
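Step 1: Grow cells in 96-well plates. Step 2: Expose to compound for 48 hours at 5 concentrations. Step 3: Interpolate endpoints linearly; if unreached, use highest concentration. Abbreviation: GI50, concentration required for 50% inhibition of growth.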 The source made the active and inactive calls. No stated cut-off is given here; in the data, active = GI50 up to about 1.1 µM and inactive = higher.

Key:
Experiment in all cases: DTP human tumour cell line panel, 48 h
SK-MEL-5 = tested on: SK-MEL-5
SK-MEL-28 = tested on: SK-MEL-28
OVCAR-8 = tested on: OVCAR-8
T47D = tested on: T47D
ACHN = tested on: ACHN
NCI-H226 = tested on: NCI-H226
CCRF-CEM = tested on: CCRF-CEM
EKVX = tested on: EKVX
Malme-3M = tested on: Malme-3M
KM12 = tested on: KM12
Hs-578T = tested on: Hs-578T
RPMI-8226 = tested on: RPMI-8226
MDA-MB-231 = tested on: MDA-MB-231
PC-3 = tested on: PC-3
SK-OV-3 = tested on: SK-OV-3
NCI-H23 = tested on: NCI-H23
HOP-62 = tested on: HOP-62
M14 = tested on: M14
SF-268 = tested on: SF-268
HCC 2998 = tested on: HCC 2998

COc1ccc(C[C@H]2COC(=O)[C@@H]2Cc2ccccc2)cc1OC
GI50 (SK-MEL-5): > 100 µM (inactive)
GI50 (SK-MEL-28): > 100 µM (inactive)
GI50 (OVCAR-8): > 100 µM (inactive)
GI50 (T47D): > 100 µM (inactive)
GI50 (ACHN): > 100 µM (inactive)
GI50 (NCI-H226): > 100 µM (inactive)
GI50 (CCRF-CEM): > 100 µM (inactive)
GI50 (EKVX): > 100 µM (inactive)
GI50 (Malme-3M): > 100 µM (inactive)
GI50 (KM12): > 100 µM (inactive)
GI50 (Hs-578T): > 100 µM (inactive)
GI50 (RPMI-8226): > 100 µM (inactive)
GI50 (MDA-MB-231): > 100 µM (inactive)
GI50 (PC-3): > 100 µM (inactive)
GI50 (SK-OV-3): > 100 µM (inactive)
GI50 (NCI-H23): > 100 µM (inactive)
GI50 (HOP-62): > 100 µM (inactive)

COc1cc(C2c3cc4c(cc3[C@@H](Nc3cccc(O)c3)C3COC(=O)[C@H]23)OCO4)cc(OC)c1O (some centres not stated)
GI50 (SK-MEL-5): 1.7 µM (inactive)
GI50 (SK-MEL-28): 2.81 µM (inactive)
GI50 (OVCAR-8): 2 µM (inactive)
GI50 (T47D): 2.24 µM (inactive)
GI50 (ACHN): 0.668 µM (active)
GI50 (M14): 2.79 µM (inactive)
GI50 (NCI-H226): 0.771 µM (active)
GI50 (CCRF-CEM): 0.425 µM (active)
GI50 (EKVX): 5.16 µM (inactive)
GI50 (Malme-3M): 2.3 µM (inactive)
GI50 (KM12): 3.31 µM (inactive)
GI50 (RPMI-8226): 0.948 µM (active)
GI50 (SF-268): 1.89 µM (inactive)
GI50 (MDA-MB-231): 5.42 µM (inactive)
GI50 (PC-3): 2.14 µM (inactive)
GI50 (HCC 2998): 3.58 µM (inactive)
GI50 (SK-OV-3): 4.61 µM (inactive)
GI50 (NCI-H23): 1.05 µM (active)
GI50 (HOP-62): 0.817 µM (active)

CC(=O)Nc1oc(C)c(C)c1S(=O)(=O)c1ccc(Cl)cc1
GI50 (SK-MEL-5): 27.8 µM (inactive)
GI50 (SK-MEL-28): 95.3 µM (inactive)
GI50 (OVCAR-8): 45.7 µM (inactive)
GI50 (T47D): 52.7 µM (inactive)
GI50 (ACHN): 46.2 µM (inactive)
GI50 (M14): 63.8 µM (inactive)
GI50 (NCI-H226): 34.4 µM (inactive)
GI50 (CCRF-CEM): 79.8 µM (inactive)
GI50 (EKVX): 39.4 µM (inactive)
GI50 (Malme-3M): 40.2 µM (inactive)
GI50 (KM12): 39.4 µM (inactive)
GI50 (Hs-578T): 33.4 µM (inactive)
GI50 (RPMI-8226): 35.6 µM (inactive)
GI50 (SF-268): 33.7 µM (inactive)
GI50 (PC-3): 22.1 µM (inactive)
GI50 (HCC 2998): 41.3 µM (inactive)
GI50 (SK-OV-3): 52.5 µM (inactive)
GI50 (NCI-H23): 43.3 µM (inactive)

COc1ccc(OC)c2sc(N3C(=O)/C(=C/c4cccc(Oc5ccccc5)c4)N=C3c3ccccc3)nc12
GI50 (SK-MEL-5): 47.5 µM (inactive)
GI50 (SK-MEL-28): > 100 µM (inactive)
GI50 (OVCAR-8): 76 µM (inactive)
GI50 (T47D): 47 µM (inactive)
GI50 (ACHN): > 100 µM (inactive)
GI50 (M14): > 100 µM (inactive)
GI50 (CCRF-CEM): 29.9 µM (inactive)
GI50 (EKVX): > 100 µM (inactive)
GI50 (Malme-3M): > 100 µM (inactive)
GI50 (KM12): 70 µM (inactive)
GI50 (Hs-578T): > 100 µM (inactive)
GI50 (RPMI-8226): 38.8 µM (inactive)
GI50 (SF-268): > 100 µM (inactive)
GI50 (MDA-MB-231): > 100 µM (inactive)
GI50 (PC-3): > 100 µM (inactive)
GI50 (HCC 2998): > 100 µM (inactive)
GI50 (SK-OV-3): > 100 µM (inactive)
GI50 (NCI-H23): > 100 µM (inactive)
GI50 (HOP-62): > 100 µM (inactive)

O=C1C(O)=C(C(CCc2ccccc2)C2=C(O)C(=O)c3ccccc3C2=O)C(=O)c2ccccc21
GI50 (SK-MEL-5): 4.08 µM (inactive)
GI50 (SK-MEL-28): > 100 µM (inactive)
GI50 (OVCAR-8): 57.1 µM (inactive)
GI50 (T47D): > 100 µM (inactive)
GI50 (ACHN): 65.9 µM (inactive)
GI50 (M14): 11.5 µM (inactive)
GI50 (NCI-H226): > 100 µM (inactive)
GI50 (CCRF-CEM): 37.9 µM (inactive)
GI50 (EKVX): 61.1 µM (inactive)
GI50 (Malme-3M): 4.27 µM (inactive)
GI50 (KM12): > 100 µM (inactive)
GI50 (Hs-578T): 5.32 µM (inactive)
GI50 (RPMI-8226): 16.1 µM (inactive)
GI50 (SF-268): 92.9 µM (inactive)
GI50 (MDA-MB-231): 66.8 µM (inactive)
GI50 (PC-3): 68.7 µM (inactive)
GI50 (SK-OV-3): > 100 µM (inactive)
GI50 (NCI-H23): 3.65 µM (inactive)
GI50 (HOP-62): 28.8 µM (inactive)

Cn1c(=O)c2nc(CCCCC(=O)O)[nH]c2n(C)c1=O
GI50 (SK-MEL-5): > 100 µM (inactive)
GI50 (SK-MEL-28): > 100 µM (inactive)
GI50 (OVCAR-8): > 100 µM (inactive)
GI50 (T47D): > 100 µM (inactive)
GI50 (ACHN): > 100 µM (inactive)
GI50 (M14): > 100 µM (inactive)
GI50 (NCI-H226): > 100 µM (inactive)
GI50 (CCRF-CEM): > 100 µM (inactive)
GI50 (EKVX): > 100 µM (inactive)
GI50 (Malme-3M): > 100 µM (inactive)
GI50 (KM12): > 100 µM (inactive)
GI50 (Hs-578T): 68.5 µM (inactive)
GI50 (SF-268): > 100 µM (inactive)
GI50 (MDA-MB-231): > 100 µM (inactive)
GI50 (PC-3): > 100 µM (inactive)
GI50 (HCC 2998): > 100 µM (inactive)
GI50 (NCI-H23): > 100 µM (inactive)
GI50 (HOP-62): > 100 µM (inactive)

CC1(C)N=C(N)N=C(N)N1c1cccc(Cl)c1
GI50 (SK-MEL-5): 22.4 µM (inactive)
GI50 (SK-MEL-28): > 100 µM (inactive)
GI50 (T47D): > 100 µM (inactive)
GI50 (ACHN): 5.21 µM (inactive)
GI50 (M14): 0.877 µM (active)
GI50 (CCRF-CEM): 3.76 µM (inactive)
GI50 (EKVX): > 100 µM (inactive)
GI50 (Malme-3M): 9.82 µM (inactive)
GI50 (KM12): 7.98 µM (inactive)
GI50 (Hs-578T): > 100 µM (inactive)
GI50 (SF-268): 1.14 µM (inactive)
GI50 (MDA-MB-231): 61.8 µM (inactive)
GI50 (PC-3): > 100 µM (inactive)
GI50 (HCC 2998): 14 µM (inactive)
GI50 (SK-OV-3): > 100 µM (inactive)
GI50 (NCI-H23): 3.22 µM (inactive)
GI50 (HOP-62): 4.85 µM (inactive)
